The subject of this assay is CD2F1 mice, L1210 leukemia ip, survival T/C. Nature of the assay: NCI In Vivo Anticancer Drug Screen. Data for tumor model L1210 Leukemia (intraperitoneal) in CD2F1 (CDF1) mice. As to conditions: endpoint: mean survival time, higher = longer survival. The essentials: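 Each value reflects a quotient of treated over vehicle control outcomes in mice with a transplanted tumor.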

Where [1] appears, read: dose: 100.0 mg/kg/injection, schedule: Q04DX003 (ip), vehicle: saline.
Setting [2] is: dose: 100.0 mg/kg/injection, schedule: Q04DX003 (ip), vehicle: saline with Tween-80.
Where [3] appears, read: dose: 200.0 mg/kg/injection, schedule: Q04DX003 (ip), vehicle: saline with Tween-80.
The mark [4] stands for this setting: dose: 400.0 mg/kg/injection, schedule: Q04DX003 (ip), vehicle: saline with Tween-80.
The mark [5] stands for this setting: dose: 12.5 mg/kg/injection, schedule: Q01DX009 (ip), vehicle: saline with Tween-80.
The mark [6] stands for this setting: dose: 25.0 mg/kg/injection, schedule: Q01DX009 (ip), vehicle: saline with Tween-80.
Setting [7] is: dose: 100.0 mg/kg/injection, schedule: Q01DX009 (ip), vehicle: saline with Tween-80.
Setting [8] is: dose: 200.0 mg/kg/injection, schedule: Q01DX009 (ip), vehicle: saline with Tween-80.
Setting [9] is: dose: 400.0 mg/kg/injection, schedule: Q01DX009 (ip), vehicle: saline with Tween-80.

Molecules are shown by their SMILES. “And” between values parts separate entries of the source, which are not always exact repeats. Identical values can stand only once. Toxic doses and inconclusive results are not listed.

Take `N#CC1(C#N)OC(C#N)(C#N)C2C1C=CC1C2C1(C#N)C#N` (configuration not stated): the T/C was 108 % of control (dose: 6.25 mg/kg/injection, schedule: Q01DX001 (ip), vehicle: saline with Tween-80); 97 % of control (dose: 12.5 mg/kg/injection, schedule: Q01DX001 (ip), vehicle: saline with Tween-80); 97 % of control (dose: 25.0 mg/kg/injection, schedule: Q01DX001 (ip), vehicle: saline with Tween-80).

Regarding `NC(CS)=NCC12CC3CC(CC(C3)C1)C2`, the T/C is, setting by setting: (dose: 12.5 mg/kg/injection, schedule: Q01DX001 (ip), vehicle: Klucel (hydroxypropylcellulose) (HPC)) 92 % of control; (dose: 25.0 mg/kg/injection, schedule: Q01DX001 (ip), vehicle: Klucel (hydroxypropylcellulose) (HPC)) 94 % of control; (dose: 50.0 mg/kg/injection, schedule: Q01DX001 (ip), vehicle: Klucel (hydroxypropylcellulose) (HPC)) 101 % of control.

Take `Cc1ccc(S(=O)(=O)[n+]2ccccc2)cc1`: the T/C was 97 % of control under setting [1]; 103 % of control (dose: 200.0 mg/kg/injection, schedule: Q04DX003 (ip), vehicle: saline); 95 % of control (dose: 400.0 mg/kg/injection, schedule: Q04DX003 (ip), vehicle: saline).

As for `CCCCCCCCCCCCCCCCCC[N+]1(C)CCOCC1`, the T/C is, setting by setting: (dose: 6.25 mg/kg/injection, schedule: Q04DX002 (ip), vehicle: Klucel (hydroxypropylcellulose) (HPC)) 95 % of control; (dose: 12.5 mg/kg/injection, schedule: Q04DX002 (ip), vehicle: Klucel (hydroxypropylcellulose) (HPC)) 91 % of control; (dose: 25.0 mg/kg/injection, schedule: Q04DX002 (ip), vehicle: Klucel (hydroxypropylcellulose) (HPC)) 90 % of control and 98 % of control; (dose: 100.0 mg/kg/injection, schedule: Q04DX002 (ip), vehicle: Klucel (hydroxypropylcellulose) (HPC)) 101 % of control.

Consider `Cc1ccc(NC(=O)NO)cc1`, for which the T/C is 95 % of control (dose: 4.0 mg/kg/injection, schedule: Q03HX024 (ip), vehicle: saline); 93 % of control (dose: 8.0 mg/kg/injection, schedule: Q03HX024 (ip), vehicle: saline); 101 % of control (dose: 16.0 mg/kg/injection, schedule: Q03HX024 (ip), vehicle: saline); 87 % of control (dose: 32.0 mg/kg/injection, schedule: Q03HX024 (ip), vehicle: saline); 97 % of control (dose: 62.0 mg/kg/injection, schedule: Q03HX024 (ip), vehicle: saline with Tween-80); 93 % of control (dose: 64.0 mg/kg/injection, schedule: Q03HX024 (ip), vehicle: saline). Also, under “dose: 93.0 mg/kg/injection, schedule: Q03HX024 (ip), vehicle: saline with Tween-80”, the T/C is 99 % of control.

As for `CCOC(=O)CN1CC(=O)Nc2ccccc21`, the T/C by setting is: under setting [2], 95 % of control; under setting [3], 98 % of control; under setting [4], 111 % of control.

As to `CC(=S)NC(O)C(=O)c1ccccc1` (configuration not stated), the T/C under setting [5] is 101 % of control; the T/C under setting [6] was 98 % of control; the T/C (dose: 50.0 mg/kg/injection, schedule: Q01DX009 (ip), vehicle: saline with Tween-80) is 98 % of control; the T/C under setting [7] is 104 % of control; the T/C under setting [8] was 93 % of control; the T/C under setting [9] was 115 % of control.

`O=c1nc(Nc2ccccc2)ccn1C1OC(CO)C(O)C1O` (configuration not stated): the T/C was 98 % of control (dose: 100.0 mg/kg/injection, schedule: Q01DX005 (ip), vehicle: distilled water + Tween-80); 107 % of control (dose: 200.0 mg/kg/injection, schedule: Q01DX005 (ip), vehicle: distilled water + Tween-80); 110 % of control (dose: 400.0 mg/kg/injection, schedule: Q01DX005 (ip), vehicle: distilled water + Tween-80).

Take `Cc1nc(=S)c2ccccc2[nH]1`: the T/C was 97 % of control (dose: 100.0 mg/kg/injection, schedule: Q01DX001 (ip), vehicle: Klucel (hydroxypropylcellulose) (HPC)); 94 % of control (dose: 200.0 mg/kg/injection, schedule: Q01DX001 (ip), vehicle: Klucel (hydroxypropylcellulose) (HPC)); 100 % of control (dose: 400.0 mg/kg/injection, schedule: Q01DX001 (ip), vehicle: Klucel (hydroxypropylcellulose) (HPC)).

Consider `O=[N+]([O-])c1ccc(/C=C/c2ccc([N+](=O)[O-])cc2S(=O)(=O)O)c(S(=O)(=O)O)c1`, for which the T/C under setting [7] was 102 % of control, the T/C under setting [8] was 105 % of control and the T/C under setting [9] was 94 % of control.

As for `CCc1nc2c(=O)n(C3OC(CO)C(O)C3O)cnc2o1` (configuration not stated), the T/C is, setting by setting: (dose: 100.0 mg/kg/injection, schedule: Q01DX005 (ip), vehicle: saline) 100 % of control; (dose: 200.0 mg/kg/injection, schedule: Q01DX005 (ip), vehicle: saline) 101 % of control.

Take `O=c1[nH]c(=O)n(C(c2ccccc2)(c2ccccc2)c2ccccc2)cc1N(CCO)CCO`: the T/C runs as follows: (dose: 50.0 mg/kg/injection, schedule: Q01DX001 (ip), vehicle: saline) 91 % of control; (dose: 100.0 mg/kg/injection, schedule: Q01DX001 (ip), vehicle: saline) 100 % of control; (dose: 200.0 mg/kg/injection, schedule: Q01DX001 (ip), vehicle: saline) 87 % of control; (dose: 400.0 mg/kg/injection, schedule: Q01DX001 (ip), vehicle: saline) 91 % of control.

For the compound `CC1(C)SC(C(NC(=O)COc2ccccc2)C(=O)O)NC1C(=O)O` (configuration not stated), the T/C under setting [2] is 97 % of control and the T/C under setting [3] was 97 % of control.

`CCOC(=O)CCC(C(=O)OCC)N1C(=O)c2ccccc2C1=O` (configuration not stated): the T/C by setting is: (dose: 25.0 mg/kg/injection, schedule: Q04DX002 (ip), vehicle: saline with Tween-80) 100 % of control; (dose: 50.0 mg/kg/injection, schedule: Q04DX002 (ip), vehicle: saline with Tween-80) 103 % of control; (dose: 100.0 mg/kg/injection, schedule: Q04DX002 (ip), vehicle: saline with Tween-80) 100 % of control.

Regarding `O=c1[nH]cc(CCCc2ccccc2)c(=O)[nH]1`, the T/C reads like this: under setting [2], 97 % of control; under setting [3], 99 % of control; under setting [4], 90 % of control.

Turning to `CCN(Cc1cnc2nc(N)nc(N)c2n1)c1ccc(C(=O)NC(CCC(=O)O)C(=O)O)cc1` (configuration not stated), the T/C was 172 % of control (dose: 2.5 mg/kg/injection, schedule: Q01DX009 (ip), vehicle: sodium bicarbonate); 174 % of control (dose: 5.0 mg/kg/injection, schedule: Q01DX009 (ip), vehicle: sodium bicarbonate); 89 % of control (dose: 6.25 mg/kg/injection, schedule: Q01DX009 (ip), vehicle: sodium bicarbonate); 217 % of control (dose: 10.0 mg/kg/injection, schedule: Q01DX009 (ip), vehicle: sodium bicarbonate); 92 % of control (dose: 12.5 mg/kg/injection, schedule: Q01DX009 (ip), vehicle: sodium bicarbonate).

As to `C[N+](C)(C)CCOC(=O)c1cc(CBr)cc(CBr)c1`, the T/C under setting [1] was 103 % of control.

With `Clc1ccc(N=Cc2ccc3c(c2)OCO3)cc1`, the T/C is 91 % of control (dose: 100.0 mg/kg/injection, schedule: Q04DX003 (ip), vehicle: other); 96 % of control (dose: 200.0 mg/kg/injection, schedule: Q04DX003 (ip), vehicle: other); 100 % of control (dose: 400.0 mg/kg/injection, schedule: Q04DX003 (ip), vehicle: other).

With `COc1cc2c(cc1OC)-c1ccc3cc4c(cc3c1N(C)C2)OCO4`, the T/C reads like this: (dose: 5.0 mg/kg/injection, schedule: Q01DX009 (ip), vehicle: water) 106 % of control; (dose: 10.0 mg/kg/injection, schedule: Q01DX009 (ip), vehicle: water) 105 % of control; (dose: 20.0 mg/kg/injection, schedule: Q01DX009 (ip), vehicle: water) 105 % of control; (dose: 40.0 mg/kg/injection, schedule: Q01DX009 (ip), vehicle: water) 108 % of control; (dose: 80.0 mg/kg/injection, schedule: Q01DX009 (ip), vehicle: water) 103 % of control.

Consider `CC(=O)OC(CC(=O)CC(OC(C)=O)(C(F)(F)F)C(F)(F)F)(C(F)(F)F)C(F)(F)F`, for which the T/C (dose: 100.0 mg/kg/injection, schedule: Q01DX009 (ip), vehicle: saline) was 100 % of control; the T/C (dose: 200.0 mg/kg/injection, schedule: Q01DX009 (ip), vehicle: saline) is 97 % of control; the T/C (dose: 400.0 mg/kg/injection, schedule: Q01DX009 (ip), vehicle: saline) was 103 % of control.

Regarding `O=C(Nc1cccnc1)c1ccccc1`, the T/C (dose: 6.25 mg/kg/injection, schedule: Q01DX009 (ip), vehicle: saline with Tween-80) is 102 % of control; the T/C under setting [5] is 102 % of control; the T/C under setting [6] was 113 % of control.

The values above are taken from PubChem BioAssay AID256 (DTP/NCI, 2004).
